Test: gradient 5% acetonitrile 3 min, to 50% in 2 min, to 85% in 15 min, held 3 min, 100 µL/min
Conditions: column: Zorbax Extend-C18 2.1 x 50 mm; eluents: water / acetonitrile, 0.1% formic acid
How it was run: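 Values are retention times taken from adduct peaks that software picked and an analyst inspected. The pure standards were run as mixtures of ~100 molecules on HPLC linked to a quadrupole time-of-flight mass spectrometer, in positive and negative ionization mode. A Zorbax Extend-C18 column (2.1 × 50 mm, 1.8 μm) was used at 100 μL/min with water and acetonitrile, each including 0.1% formic acid.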

SMILES	RP-LC retention time [s]
COc1ccc(CCC(=O)N2CCCC(C)(C(=O)NCc3ccc(C)cc3)C2)cc1 (stereo not given)	932
CN1CCCCCCN(C(=O)Cn2c(=O)oc3ccccc32)[C@H]2CCC[C@H]2C1=O	830
CC1Oc2ccccc2N(CC(=O)N2CCN(c3cc(=O)n(C)c(=O)n3C)CC2)C1=O (stereo not given)	656
COc1cccc2sc(N3CCCCC3)nc12	821
Cc1ccc(CN2CCn3c(nn(CC4CC4)c3=O)C2)nc1	561
COCCNC(=O)c1csc(N2CCN(c3ccccc3)CC2)n1	863
CCn1nccc1-c1cccc(-c2noc(-c3ccc(OC)cc3C)n2)c1	1300
CC(=O)c1ccc(Oc2ccc(/C(C)=N\N=C(N)N)cc2)cc1	674
Cc1c(Cl)cccc1N1CC(c2nc3ccccc3[nH]2)CC1=O (stereo not given)	577
CCCC(C)C(=O)NC1CCN(C2=NS(=O)(=O)C(c3ccc(F)cc3)=C2C)CC1 (stereo not given)	856
Cc1ccsc1CN1CC(Oc2ccccc2C(=O)NC2CC2)C1	615
CC1(C)CC(=O)c2cn(-c3ccccc3)c(=O)c(C(=O)NCC3CCCO3)c2C1 (stereo not given)	738
Cc1ccc(NC(=O)C2CCCN(S(=O)(=O)c3cc(-c4noc(C)n4)cs3)C2)c(Cl)c1 (stereo not given)	1060
Cc1ccc(C2=NC3(CCN(C(=O)Nc4ccc5c(c4)OCO5)CC3)NC2=O)cc1	714
CCC1CN(C(=O)N2CCC(C(=O)NCCCOC)CC2)c2cc(C)ccc2O1 (stereo not given)	757
O=C(NCCCn1nc(-c2cccnc2)ccc1=O)c1ccc(F)cc1F	569
Cc1nc(-c2ccc(OC3CCN(C(=O)NC4CCCCC4)C3)cc2)no1 (stereo not given)	845
CC(C)(C)c1csc(-c2csc(S(=O)(=O)Nc3ccc(F)c(F)c3)c2)n1	1260
CC(C)C(=O)NCc1cnn(-c2ccc(C(=O)NCC3CCCO3)cc2)c1 (stereo not given)	640

SMILES	RP-LC retention time [s]
O=C(c1ccc(F)c(F)c1)N1CCN(c2nc(CN3CCOCC3)cs2)CC1	617
Cc1cc(C(=O)N2CCC(c3noc(-c4cnccn4)n3)C2)nn1C (stereo not given)	641
CCC(C)NC(=O)c1ccc2ccnc(N3CCN(c4ccc(F)cc4)CC3)c2c1 (stereo not given)	785
Cc1oc(C2CCN(C(=O)c3cc4ccccc4[nH]3)CC2)nc1C(=O)N1CCSCC1	847
CC(NC(=O)c1ccc(C(F)(F)F)cc1)C(=O)Nc1nc2ccccc2[nH]1 (stereo not given)	641
COc1ccc(S(=O)(=O)Nc2cc(-c3cn4cccc(C)c4n3)ccc2C)cc1OC	662
CCc1cccc(NC(=O)Cn2cnc3nc(N4CCCC(C(=O)NC(C)C)C4)sc3c2=O)c1 (stereo not given)	755
O=C(Nc1ccc2c(c1)OCCO2)N1CC(c2nc(CCOCC3CC3)no2)C1	754
O=C(c1ccc(-c2noc(C3CC3)n2)cc1)N1CCCN(c2nc3ncccc3o2)CC1	760
CCCN1C(=O)c2c(C(=O)Nc3ccccc3Cl)ncn2CC1(C)C(=O)NC1CCCC1 (stereo not given)	822
CCn1cnc(S(=O)(=O)N2CCC(C(=O)N3CCN(c4ccc(OC)cc4)CC3)CC2)c1	668
CC12C(=O)N(Cc3ccccc3)C(=O)C1C1C=CC2C1 (stereo not given)	844
Cc1ccc(OCC(=O)Nc2cc3c(cc2C)n(C)c(=O)n3C)cc1	980
Cn1c(N2CCCN(C(=O)CCn3c(C4CCCCC4)nc4ccccc43)CC2)cc(=O)n(C)c1=O	610
O=S(=O)(c1cccn2c(SCc3ccccc3Cl)nnc12)N1CCCCC1	927
CCOc1ccc(CC(=O)N2CCCC2c2c(C)noc2C)cc1 (stereo not given)	902
Cc1ccc(C)c(-c2coc(-c3ccc(NC(=O)C4CCCCC4)cc3)n2)c1	1370
CCCc1nc(-c2ccccc2)oc1CC(=O)Nc1ccc(Br)cc1F	1150
Cc1c(C(=O)c2ccccc2)c2ccccc2n1C	1030

More lines, now with the values ahead:

RP-LC retention time [s]	SMILES
926	COc1ccc(CNC(=O)c2cc3c(s2)N(C)CCC3)c(OC)c1
918	CCOc1ccc(-c2[nH]ncc2CNS(=O)(=O)c2ccc(C(F)(F)F)cc2)cc1
763	COCCN1C(=O)CCC2(C(=O)Nc3cc(OC)cc(OC)c3)CCCC=C12 (stereo not given)
996	Cc1nc(-c2csc(S(=O)(=O)N3CCCC(C(=O)Nc4cc(F)ccc4F)C3)c2)no1 (stereo not given)
784	Cc1ccnc(N2CCC(C(=O)Nc3ccc(Br)cc3)CC2)n1
693	Clc1ccc(CNc2nnc(N3CCOCC3)c3ccccc23)cc1
804	O=C(c1ccccc1Cl)N1CCN(c2cc(-c3ccccc3)[nH]n2)CC1
666	CCCN1CCN(C(=O)C2CCN(S(=O)(=O)c3cc(-c4noc(CC)n4)sc3C)CC2)CC1
635	CN1CCN(c2ccccc2NC(=O)C2CCCN(c3ncnc4c3nc3n4CCCCC3)C2)CC1 (stereo not given)
682	COc1ccc(OC)c(NC(=O)c2cc(NC(=O)C3CCC3)cc3nc(C)ccc23)c1
873	Cc1cc(C)c(S(=O)(=O)N2CCn3c(nn(CC4CC4)c3=O)C2)cc1C
915	COc1cc(Cl)ccc1C(=O)Nc1ccc2c(c1)Sc1ncccc1C(=O)N2C
654	Cc1cc(C)c2c(N3CCCC3)nc(C(=O)N(C)Cc3ccccc3)nc2n1
1320	O=C(N1CC(Oc2ccc(-c3noc(-c4ccccc4)n3)cc2)C1)C1(c2ccccc2)CC1
811	Cc1ccccc1CC(=O)N1CCCC(COc2ccc(C(=O)N3CCOCC3)cc2)C1 (stereo not given)
826	O=C(Cn1cnc2nc(-c3cccnc3)ncc2c1=O)Nc1ccc2c(c1)OCO2
954	CC(=O)c1ccc(NS(C)(=O)=O)c(Oc2ccc(F)cc2F)c1
827	O=C(Nc1nnc(SCC(=O)N2CCCc3ccccc32)s1)c1cccs1
1290	Cc1ccc(S(=O)(=O)N2CCCC2c2nc(-c3ccccc3C)no2)cc1Cl (stereo not given)
550	O=C(NCc1ccncc1)C1CCCN(c2nnc3ccc(C(F)(F)F)cn23)C1 (stereo not given)
810	Cc1ccc(C(=O)NCc2nn(C)c3ccccc23)cc1
1020	COc1cc(OC)c(NC(=O)CSc2nccnc2N2CCSCC2)cc1Cl
569	Cc1oc(-c2[nH]ncc2C(=O)N2CCCC2)cc1S(=O)(=O)NCCCN(C)C
799	CC(C)C(=O)OC[C@H]1O[C@@H](n2ccc(N)nc2=O)[C@](C)(F)[C@@H]1OC(=O)C(C)C
734	COc1cc(NC(=O)CN2C(=O)C3CCCCN3c3ccc(C(=O)N(C)C)cc32)cc(OC)c1OC (stereo not given)
636	CN(C)CCNC(=O)C1CCN(c2nn3cc(-c4ccc(F)cc4)nc3s2)CC1
772	COc1cc2c(cc1OC)C1C(C(=O)Nc3ccc4c(c3)OCCO4)c3ccccc3C(=O)N1CC2 (stereo not given)

Source: the METLIN SMRT retention time set (Domingo-Almenara et al. 2019)
